Biological target: T1, GLP (Homo sapiens, UniProt Q9H9B1)
T1 construct: His6 (N); made in house; host or cells: E. coli BL21 (DE3)pLysS-rosetta
T1 sequence (Q9H9B1 1-1298): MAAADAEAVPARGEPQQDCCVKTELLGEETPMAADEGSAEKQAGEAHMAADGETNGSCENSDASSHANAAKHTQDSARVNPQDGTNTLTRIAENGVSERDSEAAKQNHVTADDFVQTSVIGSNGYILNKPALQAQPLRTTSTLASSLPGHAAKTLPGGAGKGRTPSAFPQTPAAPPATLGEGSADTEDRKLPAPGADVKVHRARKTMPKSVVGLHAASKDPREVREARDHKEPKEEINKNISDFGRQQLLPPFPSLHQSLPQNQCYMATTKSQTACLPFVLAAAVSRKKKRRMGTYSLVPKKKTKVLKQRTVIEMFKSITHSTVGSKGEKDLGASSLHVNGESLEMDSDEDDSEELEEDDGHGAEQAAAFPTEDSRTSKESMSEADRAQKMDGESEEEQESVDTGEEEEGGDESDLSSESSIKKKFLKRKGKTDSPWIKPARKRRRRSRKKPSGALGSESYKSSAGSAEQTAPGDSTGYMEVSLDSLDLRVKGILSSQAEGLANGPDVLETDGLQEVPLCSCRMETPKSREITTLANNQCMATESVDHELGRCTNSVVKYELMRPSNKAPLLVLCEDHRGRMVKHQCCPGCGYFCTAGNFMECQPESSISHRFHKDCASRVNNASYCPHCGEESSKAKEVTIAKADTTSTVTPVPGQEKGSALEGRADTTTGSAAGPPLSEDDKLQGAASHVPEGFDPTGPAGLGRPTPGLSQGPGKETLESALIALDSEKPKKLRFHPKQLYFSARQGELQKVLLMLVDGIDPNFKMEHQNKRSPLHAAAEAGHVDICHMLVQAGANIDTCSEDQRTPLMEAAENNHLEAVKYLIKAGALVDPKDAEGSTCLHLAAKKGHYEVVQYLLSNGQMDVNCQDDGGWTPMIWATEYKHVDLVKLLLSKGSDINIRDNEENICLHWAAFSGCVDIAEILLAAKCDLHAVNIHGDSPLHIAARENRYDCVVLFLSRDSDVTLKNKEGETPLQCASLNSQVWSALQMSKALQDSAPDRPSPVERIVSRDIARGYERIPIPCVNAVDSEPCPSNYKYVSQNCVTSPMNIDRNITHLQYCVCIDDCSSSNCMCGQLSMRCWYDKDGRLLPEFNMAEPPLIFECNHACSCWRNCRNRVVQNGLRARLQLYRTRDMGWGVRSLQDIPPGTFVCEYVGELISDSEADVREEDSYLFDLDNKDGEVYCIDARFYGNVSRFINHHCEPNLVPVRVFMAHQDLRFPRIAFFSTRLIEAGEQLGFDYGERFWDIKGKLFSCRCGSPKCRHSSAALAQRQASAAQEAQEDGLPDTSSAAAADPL
Test: NMR assay of GLP-catalyzed methylation of H3K9 peptides
Type: biochemical
Conditions: peptide 400 µM, GLP 8 µM, SAM 2 mM, 50 mM Tris-d11.HCl pD 8.0, 1 h, 37 °C

ARTKQTAR(Kba9)STGGKA [H3Kba9]
GLP-catalyzed methylation by 1H NMR / 1H-13C HSQC, result in words: not methylated
